Measurements reported in US12344583B2, “Solid psilocin salts” (LOBE SCIENCES LTD., priority 2022, dated 2025).
Where “and” joins values, the source holds several entries; their conditions need not be identical. Identical values can stand only once. Entries after “also recorded” stand apart in the source; their conditions may differ.

How the values were obtained:
healthy subjects = test: Phase one open-label single-dose study of psilocin mucate capsules: MMSE and mood assessment by psychiatrist; settings: single oral capsule 4.05 mg psilocin mucate (equivalent to 2 mg psilocin)
[1] = Stability studies on psilocin mucate capsule (appearance, HPLC assay and impurities, TM-022-0392); assay type: physicochemical
Procedure: Additional stability studies were performed on the solid psilocin form psilocin mucate (also known as psilocin mucic acid salt or conjugate or psilocin galactaric acid salt or conjugate) capsule.
Appearance was evaluated by viewing of the sample on a watchglass over a black and white background.
Assay conditions for Test/Method TM-022-0392 assessing stability and impurities were as follows: • Mobile phase: MPA: 945 mL water, 5 mL H3PO4, pH to 5.7 with • NaOH; MPB: Acetonitrile • Diluent: 80:20 Water: MeOH • Standard: 0.4 mg/mL Psilocin Mucic RS in Diluent • Sample: 0.4 mg/mL Psilocin Mucic API in Diluent HPLC Conditions are depicted in Table 3.
Calculations were against a bracketing external standard.
Identity of psilocin mucate was verified by ultraviolet (UV) assessment, wherein the UV spectrum of the main peak in the standard matched the UV spectrum of the main peak in the sample and by retention time wherein the retention time ratio was 0.98-1.02.

Structure (SMILES): CN(C)CCc1c[nH]c2cccc(O)c12.O=C(O)[C@@H](O)[C@H](O)[C@H](O)[C@@H](O)C(=O)O [psilocin mucate]
- FEELING STATUS (healthy subjects; one statement per subject): Less anxious, better mood, increase their appetite; also recorded: Feel little beet happier, better energy; also recorded: Feel calm, less thoughts, happier mood; also recorded: Euphoric, better mood, it helps with life stress; also recorded: Euphories, better mood, sleepy, feel time is; also recorded: Sleepy, better thoughts, less worried in general; also recorded: Did not feel change in mood but feeling cold; also recorded: More relaxed, want to drink sweet tea, better; also recorded: Better mood, feels hyper sexual
- MMSE (healthy subjects; one value per subject, below 25 expected for a hallucinogenic substance): 29 (2×) and 30 (3×) and 28 (3×) and 27 (2×)
- Total Impurities ([1]; 7 Months): <0.05%
- Impurities TM-22-0392, individual impurities ([1]; 7 Months, all impurities, area percent): All <0.05%
- Assay TM-22-0392 (% Label Claim) ([1]; 7 Months, specification 90.0-110.0%): 101,7%
- Total Impurities ([1]; Initial): 0.08%
- Impurities TM-22-0392, individual impurities ([1]; Initial, impurity at RRT I.12, area percent): RRT I.12/0.08%
